# Measured values: paper PMC11448925, “Crystal structure of guanosine 5′-monophosphate synthetase from the thermophilic bacterium Thermus thermophilus HB8” (Acta Crystallographica Section F: Structural Biology …, 2024)
# B1: Guanosine 5′-monophosphate (GMP) synthetase (GuaA) from Thermus thermophilus HB8 (enzyme, Thermus thermophilus (strain HB8))
# chain: MVLVLDFGSQYTRLIARRLRELRAFSLILPGDAPLEEVLKHRPQALILSGGPRSVFDPDAPRPDPRLFSSGLPLLGICYGMQLLAQELGGRVERAGRAEYGKALLTRHEGPLFRGLEGEVQVWMSHQDAVTAPPPGWRVVAETEENPVAAIASPDGRAYGVQFHPEVAHTPKGMQILENFLELAGVKRDWTPEHVLEELLREVRERAGKDRVLLAVSGGVDSSTLALLLAKAGVDHLAVFVDHGLLRLGEREEVEGALRALGVNLLVVDAKERFLKALKGVEDPEEKRKIIGREFVAAFSQVARERGPFRFLAQGTLYPDVIESAGGHGAAKIKSHHNVGGLPEDLEFELLEPFRLLFKDEVRELALLLGLPDTLRLRHPFPGPGLAVRVLGEVTEERLEILRRADDIFTSLLREWGLYEKVAQALAVLTPVRSVGVAGDERKYGYVLALRAVTTEDFMTADWARLPLEFLDEAARRITRRVPEIGRVVYDLTSKPPATIEWE
# notes: GMP synthetase (GuaA), Thermus thermophilus HB8, gene TTHA1552; The apo structure (2ywb) was solved with native protein; the XMP complex (2ywc) was solved from selenomethionyl protein crystals; No tag is stated for the construct; also called TtGuaA; TTHA1552
# Assays:
# [1] = target: T1, TtGuaA (GMP synthetase, GuaA) (Thermus thermophilus, UniProt Q5SI28); test: X-ray crystallography, […] Å; assay type: binding; conditions: co-crystal with 10 mM XMP, pH 4.4, 20 °C; site between ATPPase and dimerization domains
# T1 construct: full length, 503 residues, no tag; pET-11a in E. coli Rosetta(DE3); selenomethionyl crystals for the XMP complex; homodimer
# T1 sequence (Q5SI28 1-503): B1 chain
# [2] = target: the molecule itself; test: SEC; size-exclusion chromatography of purified TtGuaA; conditions of the estimate not told
molecule,measurement,setting,value
O=c1[nH]c(=O)c2ncn([C@@H]3O[C@H](COP(=O)(O)O)[C@@H](O)[C@H]3O)c2[nH]1 [XMP],"X-ray crystallography, 2.20 Å",[1],"In TtGuaA–XMP, one XMP molecule was bound to each monomer."
B1,stoichiometry N,[2],2
